Laboratory results as given in patent publication US11812767B2, “Beverage having Reb D and Reb M” (SUNTORY HOLDINGS LIMITED, priority 2018, dated 2023).

Legend:
[1] = cited from earlier work
[2] = Degradation of Reb D and Reb M in phosphate buffer at 40° C. for 8 weeks, analysed by HPLC; assay type: physicochemical; conditions: for % Reb D degradation 2 weeks: 2 weeks at 40° C.; for % Reb D degradation 4 weeks: 4 weeks at 40° C.; for % Reb D degradation 6 weeks: 6 weeks at 40° C.; for % Reb D degradation 8 weeks: 8 weeks at 40° C.
Experimental: A study was carried out as follows, samples were prepared comprising 50 ppm, 150 ppm, 250 ppm and 400 ppm, of Reb D and samples with the following ratios of Reb D:Reb M 1:4, 1:1, 4:1 wherein the total concentration of the sample was 400 ppm. The samples were prepared in phosphate buffer and the pH was adjusted using phosphoric acid. Samples were prepared at the following pH; 2.0, 2.5, 3.0 and 3.5. These samples were incubated at 40° C. for 8 weeks. This incubation protocol should mimic the degradation at room temperature over 6 months. The amount of Reb D and Reb M in each sample at T=0 was calculated by HPLC this was then used to calculate the amount of remaining Reb M in each sample at each specified time point. Aliquots were taken at 2, 4, 6 and 8 weeks and analysed by HPLC to determine the degradation of Reb D and combinations of Reb D and Reb M over the 8 week study.

[3] = pH 2, Reb D 0.008 % w/w + Reb M 0.032 % w/w
[4] = pH 2, Reb D 0.02 % w/w + Reb M 0.02 % w/w
[5] = pH 2, Reb D 0.032 % w/w + Reb M 0.008 % w/w
[6] = pH 2.5, Reb D 0.005 % w/w alone
[7] = pH 2.5, Reb D 0.008 % w/w + Reb M 0.032 % w/w
[8] = pH 2.5, Reb D 0.015 % w/w alone
[9] = pH 2.5, Reb D 0.02 % w/w + Reb M 0.02 % w/w
[10] = pH 2.5, Reb D 0.025 % w/w alone
[11] = pH 2.5, Reb D 0.032 % w/w + Reb M 0.008 % w/w
[12] = pH 3, Reb D 0.008 % w/w + Reb M 0.032 % w/w
[13] = pH 3, Reb D 0.02 % w/w + Reb M 0.02 % w/w
[14] = pH 3, Reb D 0.032 % w/w + Reb M 0.008 % w/w
[15] = pH 3.5, Reb D 0.005 % w/w alone
[16] = pH 3.5, Reb D 0.008 % w/w + Reb M 0.032 % w/w
[17] = pH 3.5, Reb D 0.015 % w/w alone
[18] = pH 3.5, Reb D 0.02 % w/w + Reb M 0.02 % w/w
[19] = pH 3.5, Reb D 0.025 % w/w alone
[20] = pH 3.5, Reb D 0.032 % w/w + Reb M 0.008 % w/w

degradation of low concentration sample of Reb D versus higher concentration samples ([2]; across pH 2.0 to 3.5): degraded more quickly
additional degradation of 50 ppm Reb D sample versus 80 ppm Reb D sample in combination with 320 ppm Reb M ([2]; pH 2.0): approx. 10%
% Reb D degradation 2 weeks ([2]; pH 2, Reb D 0.005 % w/w alone): 37%
% Reb D degradation 4 weeks ([2]; pH 2, Reb D 0.005 % w/w alone): 73%
% Reb D degradation 6 weeks ([2]; pH 2, Reb D 0.005 % w/w alone): 84%
% Reb D degradation 8 weeks ([2]; pH 2, Reb D 0.005 % w/w alone): 91%
% Reb D degradation 2 weeks [2, 3]: 36%
% Reb D degradation 4 weeks [2, 3]: 62%
% Reb D degradation 6 weeks [2, 3]: 76%
% Reb D degradation 8 weeks [2, 3]: 85%
% Reb D degradation 2 weeks ([2]; pH 2, Reb D 0.015 % w/w alone): 28%
% Reb D degradation 4 weeks ([2]; pH 2, Reb D 0.015 % w/w alone): 70%
% Reb D degradation 6 weeks ([2]; pH 2, Reb D 0.015 % w/w alone): 82%
% Reb D degradation 8 weeks ([2]; pH 2, Reb D 0.015 % w/w alone): 90%
% Reb D degradation 2 weeks [2, 4]: 28%
% Reb D degradation 4 weeks [2, 4]: 59%
% Reb D degradation 6 weeks [2, 4]: 72%
% Reb D degradation 8 weeks [2, 4]: 82%
% Reb D degradation 2 weeks ([2]; pH 2, Reb D 0.025 % w/w alone): 32%
% Reb D degradation 4 weeks ([2]; pH 2, Reb D 0.025 % w/w alone): 68%
% Reb D degradation 6 weeks ([2]; pH 2, Reb D 0.025 % w/w alone): 81%
% Reb D degradation 8 weeks ([2]; pH 2, Reb D 0.025 % w/w alone): 89%
% Reb D degradation 2 weeks [2, 5]: 37%
% Reb D degradation 4 weeks [2, 5]: 63%
% Reb D degradation 6 weeks [2, 5]: 78%
% Reb D degradation 8 weeks [2, 5]: 86%
% Reb D degradation 2 weeks ([2]; pH 2, Reb D 0.04 % w/w alone): 32%
% Reb D degradation 4 weeks ([2]; pH 2, Reb D 0.04 % w/w alone): 66%
% Reb D degradation 6 weeks ([2]; pH 2, Reb D 0.04 % w/w alone): 79%
% Reb D degradation 8 weeks ([2]; pH 2, Reb D 0.04 % w/w alone): 86%
degradation of Reb D samples which also contained Reb M versus Reb D samples alone (FIG. 4) ([2]; pH 2.0 and 2.5, averaged over samples): degraded less
% Reb D degradation 2 weeks [2, 6]: 11%
% Reb D degradation 4 weeks [2, 6]: 37%
% Reb D degradation 6 weeks [2, 6]: 44%
% Reb D degradation 8 weeks [2, 6]: 55%
% Reb D degradation 2 weeks [2, 7]: 8%
% Reb D degradation 4 weeks [2, 7]: 28%
% Reb D degradation 6 weeks [2, 7]: 37%
% Reb D degradation 8 weeks [2, 7]: 42%
% Reb D degradation 2 weeks [2, 8]: 10%
% Reb D degradation 4 weeks [2, 8]: 32%
% Reb D degradation 6 weeks [2, 8]: 40%
% Reb D degradation 8 weeks [2, 8]: 50%
% Reb D degradation 2 weeks [2, 9]: 7%
% Reb D degradation 4 weeks [2, 9]: 25%
% Reb D degradation 6 weeks [2, 9]: 33%
% Reb D degradation 8 weeks [2, 9]: 42%
% Reb D degradation 2 weeks [2, 10]: 8%
% Reb D degradation 4 weeks [2, 10]: 27%
% Reb D degradation 6 weeks [2, 10]: 34%
% Reb D degradation 8 weeks [2, 10]: 44%
% Reb D degradation 2 weeks [2, 11]: 5%
% Reb D degradation 4 weeks [2, 11]: 23%
% Reb D degradation 6 weeks [2, 11]: 33%
% Reb D degradation 8 weeks [2, 11]: 42%
% Reb D degradation 2 weeks ([2]; pH 2.5, Reb D 0.04 % w/w alone): 7%
% Reb D degradation 4 weeks ([2]; pH 2.5, Reb D 0.04 % w/w alone): 25%
% Reb D degradation 6 weeks ([2]; pH 2.5, Reb D 0.04 % w/w alone): 34%
% Reb D degradation 8 weeks ([2]; pH 2.5, Reb D 0.04 % w/w alone): 43%
% Reb D degradation 2 weeks ([2]; pH 3, Reb D 0.005 % w/w alone): 0%
% Reb D degradation 4 weeks ([2]; pH 3, Reb D 0.005 % w/w alone): 17%
% Reb D degradation 6 weeks ([2]; pH 3, Reb D 0.005 % w/w alone): 22%
% Reb D degradation 8 weeks ([2]; pH 3, Reb D 0.005 % w/w alone): 29%
% Reb D degradation 2 weeks [2, 12]: 1%
% Reb D degradation 4 weeks [2, 12]: 17%
% Reb D degradation 6 weeks [2, 12]: 22%
% Reb D degradation 8 weeks [2, 12]: 24%
% Reb D degradation 2 weeks ([2]; pH 3, Reb D 0.015 % w/w alone): 0%
% Reb D degradation 4 weeks ([2]; pH 3, Reb D 0.015 % w/w alone): 11%
% Reb D degradation 6 weeks ([2]; pH 3, Reb D 0.015 % w/w alone): 16%
% Reb D degradation 8 weeks ([2]; pH 3, Reb D 0.015 % w/w alone): 22%
% Reb D degradation 2 weeks [2, 13]: 0%
% Reb D degradation 4 weeks [2, 13]: 17%
% Reb D degradation 6 weeks [2, 13]: 20%
% Reb D degradation 8 weeks [2, 13]: 23%
% Reb D degradation 2 weeks ([2]; pH 3, Reb D 0.025 % w/w alone): 1%
% Reb D degradation 4 weeks ([2]; pH 3, Reb D 0.025 % w/w alone): 10%
% Reb D degradation 6 weeks ([2]; pH 3, Reb D 0.025 % w/w alone): 13%
% Reb D degradation 8 weeks ([2]; pH 3, Reb D 0.025 % w/w alone): 19%
% Reb D degradation 2 weeks [2, 14]: 1%
% Reb D degradation 4 weeks [2, 14]: 14%
% Reb D degradation 6 weeks [2, 14]: 17%
% Reb D degradation 8 weeks [2, 14]: 20%
% Reb D degradation 2 weeks ([2]; pH 3, Reb D 0.04 % w/w alone): 0%
% Reb D degradation 4 weeks ([2]; pH 3, Reb D 0.04 % w/w alone): 9%
% Reb D degradation 6 weeks ([2]; pH 3, Reb D 0.04 % w/w alone): 11%
% Reb D degradation 8 weeks ([2]; pH 3, Reb D 0.04 % w/w alone): 18%
% Reb D degradation 8 weeks ([2]; pH 3.5, Reb D 0.005 % w/w (50 ppm) alone): 20%
% Reb D degradation 2 weeks [2, 15]: 1%
% Reb D degradation 4 weeks [2, 15]: 10%
% Reb D degradation 6 weeks [2, 15]: 14%
% Reb D degradation 2 weeks [2, 16]: 0%
% Reb D degradation 4 weeks [2, 16]: 6%
% Reb D degradation 6 weeks [2, 16]: 6%
% Reb D degradation 8 weeks [2, 16]: 9%
% Reb D degradation 2 weeks [2, 17]: 0%
% Reb D degradation 4 weeks [2, 17]: 4%
% Reb D degradation 6 weeks [2, 17]: 5%
% Reb D degradation 8 weeks [2, 17]: 8%
% Reb D degradation 2 weeks [2, 18]: 0%
% Reb D degradation 4 weeks [2, 18]: 6%
% Reb D degradation 6 weeks [2, 18]: 8%
% Reb D degradation 8 weeks [2, 18]: 9%
% Reb D degradation 2 weeks [2, 19]: 0%
% Reb D degradation 4 weeks [2, 19]: 2%
% Reb D degradation 6 weeks [2, 19]: 2%
% Reb D degradation 8 weeks [2, 19]: 5%
% Reb D degradation 2 weeks [2, 20]: 1%
% Reb D degradation 4 weeks [2, 20]: 2%
% Reb D degradation 6 weeks [2, 20]: 2%
% Reb D degradation 8 weeks [2, 20]: 5%
% Reb D degradation 8 weeks ([2]; pH 3.5, Reb D 0.04 % w/w (400 ppm) alone): 5%
% Reb D degradation 2 weeks ([2]; pH 3.5, Reb D 0.04 % w/w alone): 1%
% Reb D degradation 4 weeks ([2]; pH 3.5, Reb D 0.04 % w/w alone): 1%
% Reb D degradation 6 weeks ([2]; pH 3.5, Reb D 0.04 % w/w alone): 1%
stability of Reb D combined with Reb M in a ratio of about 1:1, compared to on its own ([2]; pH range 2.0 to 2.5): most stable
SMILES: C=C1C[C@@]23CC[C@H]4[C@@](C)(CCC[C@@]4(C)C(=O)O[C@@H]4O[C@H](CO)[C@@H](O)[C@H](O)[C@H]4O[C@@H]4O[C@H](CO)[C@@H](O)[C@H](O)[C@H]4O)[C@@H]2CC[C@]1(O[C@@H]1O[C@H](CO)[C@@H](O)[C@H](O[C@@H]2O[C@H](CO)[C@@H](O)[C@H](O)[C@H]2O)[C@H]1O[C@@H]1O[C@H](CO)[C@@H](O)[C@H](O)[C@H]1O)C3 [Reb D, rebaudioside D]
Sweetness potency (relative to sucrose) [1]: 221
